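Protocol summary: plate cells (96-well), add compound at 5 concentrations, incubate 48 h, interpolate endpoints linearly. GI50 marks 50% less growth.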 Active and inactive are the calls of the source. No stated cut-off is given here; in the data, active = GI50 up to about 1.1 µM and inactive = higher.
Assays:
Assay in all cases: NCI tumour cell line growth inhibition, 48 h
HOP-18 = tested on: HOP-18
LXFL 529 = tested on: LXFL 529
XF498 = tested on: XF498
DMS-114 = tested on: DMS-114
DLD-1 = tested on: DLD-1
KM-20L2 = tested on: KM-20L2
M19-MEL = tested on: M19-MEL
SNB-78 = tested on: SNB-78
RXF 631 = tested on: RXF 631

Measured: GI50

O=C(N/N=C/c1cccc(F)c1)c1ccncc1
inactive: HOP-18 > 100 µM | LXFL 529 > 100 µM | XF498 > 100 µM | DMS-114 > 100 µM | DLD-1 > 100 µM | KM-20L2 > 100 µM

O=C(Nc1cc(Cl)c(Cl)cc1Cl)C(=O)C(C(=O)c1ccc(Cl)c(Cl)c1)C1OC(=O)c2ccccc21 (configuration not stated)
inactive: M19-MEL 17.6 µM | LXFL 529 10.9 µM | DMS-114 13.7 µM | SNB-78 31.8 µM | DLD-1 8.47 µM | KM-20L2 17.7 µM

Clc1cccc(N2CCN(CCN3CCc4c([nH]c5ccccc45)C3c3cccnc3)CC2)c1 (configuration not stated)
inactive: M19-MEL > 100 µM | HOP-18 > 100 µM | LXFL 529 63.7 µM | XF498 40.3 µM | DMS-114 73.5 µM | SNB-78 > 100 µM | DLD-1 39.4 µM | KM-20L2 24 µM

O=C(CC1C(=O)Nc2ccccc2S1(=O)=O)Nc1ccc(Cl)cc1 (configuration not stated)
inactive: M19-MEL 24 µM | LXFL 529 22.9 µM | XF498 11.7 µM | DMS-114 13.4 µM | SNB-78 21.7 µM | DLD-1 33.5 µM | KM-20L2 > 100 µM | RXF 631 27.6 µM

O=C(NC1CC1)c1c(O)[nH]c(=S)[nH]c1=O
inactive: M19-MEL > 100 µM | HOP-18 > 100 µM | LXFL 529 > 100 µM | DMS-114 > 100 µM | SNB-78 > 100 µM | DLD-1 > 100 µM | KM-20L2 > 100 µM | RXF 631 > 100 µM

Nc1nc(Cl)cc(NCC(O)CO)n1 (configuration not stated)
inactive: M19-MEL > 100 µM | HOP-18 > 100 µM | LXFL 529 > 100 µM | XF498 > 100 µM | DMS-114 > 100 µM | SNB-78 > 100 µM | DLD-1 > 100 µM | KM-20L2 > 100 µM

CCOC(=O)C1([Se]c2ccccc2)CCCC1=O (configuration not stated)
inactive: M19-MEL 19.7 µM | HOP-18 20.1 µM | LXFL 529 14.8 µM | XF498 16.1 µM | DMS-114 3.83 µM | SNB-78 24 µM | DLD-1 16.6 µM | KM-20L2 36.6 µM | RXF 631 66.5 µM

COc1ccc(-c2cc(=O)c3cc(C)c(C)c(C(=O)O)c3o2)cc1
inactive: M19-MEL > 100 µM | LXFL 529 > 100 µM | XF498 > 100 µM | DMS-114 15.3 µM | SNB-78 > 100 µM | DLD-1 > 100 µM | KM-20L2 > 100 µM | RXF 631 > 100 µM

Cc1ccc(S(=O)(=O)OCC/C(=C\[Si](C)(C)C)c2ccccc2)cc1
inactive: M19-MEL > 100 µM | HOP-18 > 100 µM | LXFL 529 > 100 µM | XF498 > 100 µM | DMS-114 > 100 µM | DLD-1 > 100 µM | KM-20L2 > 100 µM

O=C1C=CC(=O)c2ccc(=O)ccc21
inactive: M19-MEL 7.55 µM | HOP-18 19.4 µM | LXFL 529 2.54 µM | DMS-114 9.16 µM | SNB-78 25.9 µM | DLD-1 4.34 µM | KM-20L2 22.2 µM | RXF 631 14.4 µM

COC1CC(O)C(OC(=O)c2ccccc2)C(C)O1 (configuration not stated)
inactive: M19-MEL > 100 µM | HOP-18 > 100 µM | XF498 > 100 µM | SNB-78 > 100 µM | DLD-1 > 10 µM | KM-20L2 > 100 µM | RXF 631 > 100 µM

CCN(CC)CCCNC(=O)c1ccc([N+](=O)[O-])cc1O
inactive: LXFL 529 > 100 µM | DMS-114 > 100 µM | SNB-78 > 100 µM | DLD-1 > 100 µM | KM-20L2 > 100 µM | RXF 631 > 100 µM

COc1ccc(OC)c2cc(C3(C)SCCCS3)ccc12
inactive: M19-MEL > 100 µM | HOP-18 > 100 µM | LXFL 529 > 100 µM | XF498 61.7 µM | DMS-114 92.5 µM | SNB-78 45.9 µM | DLD-1 > 100 µM | KM-20L2 81.7 µM

O=C1CC(c2n[nH]c3ccccc23)C(=O)N1c1ccccc1 (configuration not stated)
inactive: M19-MEL > 100 µM | HOP-18 > 100 µM | LXFL 529 > 95.9 µM | XF498 > 100 µM | DMS-114 > 100 µM | SNB-78 > 100 µM | DLD-1 > 100 µM | KM-20L2 > 100 µM | RXF 631 > 100 µM

CC1(C)CCCC2(C)C3C(O)CC2(C)C(O)C31 (configuration not stated)
inactive: M19-MEL > 100 µM | HOP-18 > 100 µM | LXFL 529 > 100 µM | XF498 > 100 µM | DMS-114 > 100 µM | SNB-78 > 100 µM | DLD-1 > 100 µM | KM-20L2 > 100 µM

CN1CCc2cc3c4cc2C1Cc1ccc(cc1)Oc1cc(ccc1O)CC1c2c(cc(O)c(c2O4)O3)CCN1C (configuration not stated)
inactive: M19-MEL 1.78 µM | HOP-18 3.52 µM | LXFL 529 2.53 µM | XF498 1.69 µM | DMS-114 2.05 µM | SNB-78 5.66 µM | DLD-1 3.3 µM | KM-20L2 2.9 µM | RXF 631 1.94 µM

O=c1oc2c3ccc4ccccc4c3n(CCCN3CCCCC3)c2c2ccccc12
inactive: M19-MEL 63.2 µM | HOP-18 > 100 µM | LXFL 529 62.7 µM | XF498 64.6 µM | DMS-114 > 100 µM | DLD-1 25.2 µM | KM-20L2 19.5 µM | RXF 631 46.7 µM

COC(=O)C1CCCC2(C1)OCCO2 (configuration not stated)
inactive: M19-MEL > 100 µM | HOP-18 > 100 µM | LXFL 529 > 100 µM | DMS-114 > 100 µM | SNB-78 > 100 µM | DLD-1 > 100 µM | KM-20L2 > 100 µM | RXF 631 > 100 µM

CCc1c(OC(C)=O)c2c(NC3OCC(OC(C)=O)C(OC(C)=O)C3OC(C)=O)nc(SC)nc2oc1=O (configuration not stated)
inactive: M19-MEL > 100 µM | HOP-18 > 100 µM | LXFL 529 > 100 µM | XF498 > 100 µM | SNB-78 > 100 µM | DLD-1 > 100 µM | KM-20L2 > 100 µM | RXF 631 > 100 µM

C=C1C(=O)C23CC1CCC2C12CO[C@@H]4OCC(C)(CC[C@@H]1OC3=O)C42 (some centres not stated)
inactive: M19-MEL 6.53 µM | HOP-18 6.41 µM | LXFL 529 2.78 µM | XF498 1.92 µM | DMS-114 1.9 µM | SNB-78 2.3 µM | DLD-1 3.52 µM | KM-20L2 5.38 µM | RXF 631 12.1 µM

Cc1ccc(S(=O)(=O)N/N=C(/CC(=O)c2c(C)[n+]([O-])c3ccccc3[n+]2[O-])C(=O)Nc2ccc(C)c(C)c2)cc1
inactive: M19-MEL 17.9 µM | HOP-18 > 100 µM | LXFL 529 > 100 µM | DMS-114 19.6 µM | SNB-78 > 100 µM | DLD-1 > 100 µM | KM-20L2 > 100 µM | RXF 631 > 100 µM

COc1ccc(NC(=O)CC/C(CC(=O)C(C)(C)C)=N\NC(=O)C(N)=O)cc1
inactive: M19-MEL > 100 µM | LXFL 529 79.4 µM | DMS-114 > 100 µM | DLD-1 > 100 µM | KM-20L2 > 100 µM

COc1ccccc1NC(=O)C1=C(C)NC(C)=C(C(=O)Nc2ccccc2OC)C1C1=CC=COC1
inactive: M19-MEL 8.97 µM | HOP-18 28.5 µM | LXFL 529 11.1 µM | DMS-114 7.24 µM | SNB-78 23.3 µM | DLD-1 11.5 µM | KM-20L2 6.07 µM

COc1ncn(C2C=C(CO)C(O)C2O)c(=O)n1 (configuration not stated)
inactive: HOP-18 > 100 µM | LXFL 529 > 100 µM | DMS-114 > 100 µM | SNB-78 > 100 µM | DLD-1 > 100 µM | KM-20L2 > 100 µM

O=C1C(=Cc2c(O)cc(O)cc2O)C(=O)c2ccccc21
inactive: M19-MEL > 38.5 µM | HOP-18 27.4 µM | LXFL 529 > 43.5 µM | DMS-114 > 100 µM | SNB-78 23.8 µM | DLD-1 > 40.6 µM | KM-20L2 > 43.5 µM

O=C1c2ccccc2C2(O)N(c3ccccc3)C(=S)N(c3ccccc3)C12O (configuration not stated)
inactive: M19-MEL > 100 µM | HOP-18 > 100 µM | LXFL 529 > 100 µM | DMS-114 > 100 µM | SNB-78 > 100 µM | DLD-1 > 100 µM | KM-20L2 > 100 µM | RXF 631 > 100 µM

CC1(c2cccc(C3CC4(CCC3=O)OCCCCO4)c2)OCCO1 (configuration not stated)
inactive: M19-MEL > 100 µM | HOP-18 > 100 µM | LXFL 529 > 100 µM | DMS-114 7.96 µM | SNB-78 > 100 µM | DLD-1 > 100 µM | KM-20L2 > 100 µM

Cc1ccccc1/C=C/C(=O)c1ccccc1
inactive: M19-MEL 25 µM | LXFL 529 21.6 µM | XF498 17.1 µM | DMS-114 20.9 µM | SNB-78 19.3 µM | DLD-1 22.4 µM | KM-20L2 17.7 µM | RXF 631 19.4 µM

Reference: ChEMBL document CHEMBL1201862, “PubChem BioAssay data set” (2004)
